In ChEMBL document CHEMBL5236585, “Design, synthesis and antifungal activities of novel triazole derivatives with selenium-containing hydrophobic side chains” (Bioorg Med Chem Lett, 2022):
pIC50: −log10 of the molar value.

What was measured:
Candida albicans [1] = experiment: Antifungal activity against Candida albicans ATCC SC5314 assessed as inhibition of fungal growth by microdilution method; type: functional
Aspergillus fumigatus = experiment: Antifungal activity against Aspergillus fumigatus CGMCC 3.7795 assessed as inhibition of fungal growth by microdilution method; type: functional
Candida albicans [2] = experiment: Antifungal activity against Candida albicans CPCC 400616 assessed as inhibition of fungal growth by microdilution method; type: functional
Nakaseomyces glabratus = experiment: Antifungal activity against clinical isolate Candida glabrata assessed as inhibition of fungal growth by microdilution method; type: functional
Cryptococcus neoformans = experiment: Antifungal activity against Cryptococcus neoformans CGMCC 2.3161 assessed as inhibition of fungal growth by microdilution method; type: functional
Candida tropicalis = experiment: Antifungal activity against Candida tropicalis CGMCC 2.3739 assessed as inhibition of fungal growth by microdilution method; type: functional
Candida parapsilosis = experiment: Antifungal activity against Candida parapsilosis 22019 assessed as inhibition of fungal growth by microdilution method; type: functional; conditions: Lodderomyces parapsilosis
Pichia kudriavzevii = experiment: Antifungal activity against Candida krusei AS 2.1045 assessed as inhibition of fungal growth by microdilution method; type: functional
HL-60 = experiment: Cytotoxicity against human HL-60 cells assessed as inhibition of cell growth by MTT assay; type: functional, cell-based
[3] = target: T1, Lanosterol 14-alpha demethylase (Candida albicans (strain SC5314 / ATCC MYA-2876) (Yeast), UniProt P10613); experiment: Inhibition of CYP51 in Candida albicans SC5314 assessed as ergosterol level at 1 ug/ml by GC-MS analysis (reference value: 98.3 %); set-up: scale not given: the % may be the effect or the level left; conditions: at 1 µg/mL
T1 sequence (P10613 whole entry): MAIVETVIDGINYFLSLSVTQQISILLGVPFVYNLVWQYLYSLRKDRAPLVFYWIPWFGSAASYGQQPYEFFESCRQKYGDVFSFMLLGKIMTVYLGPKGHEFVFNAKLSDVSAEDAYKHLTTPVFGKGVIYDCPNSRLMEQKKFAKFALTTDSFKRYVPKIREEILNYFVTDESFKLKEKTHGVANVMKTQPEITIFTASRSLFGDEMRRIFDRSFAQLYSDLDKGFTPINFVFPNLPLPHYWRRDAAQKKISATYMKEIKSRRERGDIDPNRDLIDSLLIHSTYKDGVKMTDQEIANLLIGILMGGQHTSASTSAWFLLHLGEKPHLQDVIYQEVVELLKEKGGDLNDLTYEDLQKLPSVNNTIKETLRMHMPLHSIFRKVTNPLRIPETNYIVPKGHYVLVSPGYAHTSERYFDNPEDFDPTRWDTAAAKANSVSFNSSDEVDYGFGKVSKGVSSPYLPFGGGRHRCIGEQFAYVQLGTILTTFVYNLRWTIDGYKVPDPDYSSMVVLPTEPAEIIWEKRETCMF

[4] = target: T1, Lanosterol 14-alpha demethylase; experiment: Inhibition of CYP51 in Candida albicans SC5314 assessed as ergosterol level at 4 ug/ml by GC-MS analysis (reference value: 98.3 %); set-up: scale not given: the % may be the effect or the level left; conditions: at 4 µg/mL
[5] = target: T1, Lanosterol 14-alpha demethylase; experiment: Inhibition of CYP51 in Candida albicans SC5314 assessed as lanosterol level at 4 ug/ml by GC-MS analysis (reference value: 1.7 %); set-up: scale not given: the % may be the effect or the level left; conditions: at 4 µg/mL
[6] = target: T1, Lanosterol 14-alpha demethylase; experiment: Inhibition of CYP51 in Candida albicans SC5314 assessed as obtusifoliol level at 4 ug/ml by GC-MS analysis (reference value: 0 %); set-up: scale not given: the % may be the effect or the level left; conditions: at 4 µg/mL
[7] = target: T1, Lanosterol 14-alpha demethylase; experiment: Inhibition of CYP51 in Candida albicans SC5314 assessed as eburicol level at 2 ug/ml by GC-MS analysis (reference value: 0 %); set-up: scale not given: the % may be the effect or the level left; conditions: at 2 µg/mL
[8] = target: T1, Lanosterol 14-alpha demethylase; experiment: Inhibition of CYP51 in Candida albicans SC5314 assessed as eburicol level at 1 ug/ml by GC-MS analysis (reference value: 0 %); set-up: scale not given: the % may be the effect or the level left; conditions: at 1 µg/mL
[9] = target: T1, Lanosterol 14-alpha demethylase; experiment: Inhibition of CYP51 in Candida albicans SC5314 assessed as eburicol level at 8 ug/ml by GC-MS analysis (reference value: 0 %); set-up: scale not given: the % may be the effect or the level left; conditions: at 8 µg/mL
[10] = target: T1, Lanosterol 14-alpha demethylase; experiment: Inhibition of CYP51 in Candida albicans SC5314 assessed as eburicol level at 4 ug/ml by GC-MS analysis (reference value: 0 %); set-up: scale not given: the % may be the effect or the level left; conditions: at 4 µg/mL
PC-3 = experiment: Cytotoxicity against human PC-3 cells assessed as inhibition of cell growth by MTT assay; type: functional, cell-based
MDA-MB-231 = experiment: Cytotoxicity against human MDA-MB-231 cells assessed as inhibition of cell growth by MTT assay; type: functional, cell-based
[11] = target: T1, Lanosterol 14-alpha demethylase; experiment: Inhibition of CYP51 in Candida albicans SC5314 assessed as obtusifoliol level at 1 ug/ml by GC-MS analysis (reference value: 0 %); set-up: scale not given: the % may be the effect or the level left; conditions: at 1 µg/mL
[12] = target: T1, Lanosterol 14-alpha demethylase; experiment: Inhibition of CYP51 in Candida albicans SC5314 assessed as lanosterol level at 8 ug/ml by GC-MS analysis (reference value: 1.7 %); set-up: scale not given: the % may be the effect or the level left; conditions: at 8 µg/mL
[13] = target: T1, Lanosterol 14-alpha demethylase; experiment: Inhibition of CYP51 in Candida albicans SC5314 assessed as ergosterol level at 2 ug/ml by GC-MS analysis (reference value: 98.3 %); set-up: scale not given: the % may be the effect or the level left; conditions: at 2 µg/mL
[14] = target: T1, Lanosterol 14-alpha demethylase; experiment: Inhibition of CYP51 in Candida albicans SC5314 assessed as obtusifoliol level at 2 ug/ml by GC-MS analysis (reference value: 0 %); set-up: scale not given: the % may be the effect or the level left; conditions: at 2 µg/mL
[15] = target: T1, Lanosterol 14-alpha demethylase; experiment: Inhibition of CYP51 in Candida albicans SC5314 assessed as lanosterol level at 1 ug/ml by GC-MS analysis (reference value: 1.7 %); set-up: scale not given: the % may be the effect or the level left; conditions: at 1 µg/mL
[16] = target: T1, Lanosterol 14-alpha demethylase; experiment: Inhibition of CYP51 in Candida albicans SC5314 assessed as obtusifoliol level at 8 ug/ml by GC-MS analysis (reference value: 0 %); set-up: scale not given: the % may be the effect or the level left; conditions: at 8 µg/mL
[17] = target: T1, Lanosterol 14-alpha demethylase; experiment: Inhibition of CYP51 in Candida albicans SC5314 assessed as lanosterol level at 2 ug/ml by GC-MS analysis (reference value: 1.7 %); set-up: scale not given: the % may be the effect or the level left; conditions: at 2 µg/mL
[18] = target: T1, Lanosterol 14-alpha demethylase; experiment: Inhibition of CYP51 in Candida albicans SC5314 assessed as ergosterol level at 8 ug/ml by GC-MS analysis (reference value: 98.3 %); set-up: scale not given: the % may be the effect or the level left; conditions: at 8 µg/mL

SMILES | MIC (Candida albicans [1]) | MIC (Aspergillus fumigatus) | MIC (Candida albicans [2]) | MIC (Nakaseomyces glabratus) | MIC (Cryptococcus neoformans) | MIC (Candida tropicalis) | MIC (Candida parapsilosis) | MIC (Pichia kudriavzevii) | further results
OC(C[Se]Cc1ccccc1Cl)(Cn1cncn1)c1ccc(F)cc1F (stereo not given) | 0.02 µg/mL | 2 µg/mL | 0.125 µg/mL | 0.5 µg/mL | 0.25 µg/mL | 0.25 µg/mL | 0.125 µg/mL | 0.125 µg/mL | 
Cc1cccc(C)c1[Se]CC(O)(Cn1cncn1)c1ccc(F)cc1F (stereo not given) | 0.5 µg/mL | 4 µg/mL | 0.06 µg/mL | 1 µg/mL | 0.25 µg/mL | 1 µg/mL | 0.25 µg/mL | 0.125 µg/mL | 
OC(C[Se]c1ccc(F)cc1)(Cn1cncn1)c1ccc(F)cc1F (stereo not given) | 0.125 µg/mL | 4 µg/mL | 0.25 µg/mL | 4 µg/mL | 0.25 µg/mL | 0.5 µg/mL | 0.125 µg/mL | 2 µg/mL | 
Cc1cc(C)cc([Se]CC(O)(Cn2cncn2)c2ccc(F)cc2F)c1 (stereo not given) | 0.03 µg/mL | 8 µg/mL | 0.06 µg/mL | 4 µg/mL | 0.03 µg/mL | 0.06 µg/mL | 0.25 µg/mL | 2 µg/mL | 
Cc1cccc([Se]CC(O)(Cn2cncn2)c2ccc(F)cc2F)c1 (stereo not given) | 0.125 µg/mL | 8 µg/mL | 0.25 µg/mL | 2 µg/mL | 0.5 µg/mL | 1 µg/mL | 0.5 µg/mL | 0.5 µg/mL | 
Cc1cccc(C[Se]CC(O)(Cn2cncn2)c2ccc(F)cc2F)c1 (stereo not given) | 0.06 µg/mL | 4 µg/mL | 0.125 µg/mL | 4 µg/mL | 1 µg/mL | 1 µg/mL | 0.25 µg/mL | 2 µg/mL | 
Cc1ccccc1[Se]CC(O)(Cn1cncn1)c1ccc(F)cc1F (stereo not given) | 0.03 µg/mL | 16 µg/mL | 1 µg/mL | 0.5 µg/mL | 0.25 µg/mL | 1 µg/mL | 0.125 µg/mL | 0.5 µg/mL | 
CCc1ccccc1[Se]CC(O)(Cn1cncn1)c1ccc(F)cc1F (stereo not given) | 0.5 µg/mL | 4 µg/mL | 0.25 µg/mL | 1 µg/mL | 0.5 µg/mL | 2 µg/mL | 0.25 µg/mL | 1 µg/mL | 
CCc1ccc([Se]CC(O)(Cn2cncn2)c2ccc(F)cc2F)cc1 (stereo not given) | 0.5 µg/mL | 4 µg/mL | 1 µg/mL | 4 µg/mL | 1 µg/mL | 2 µg/mL | 0.5 µg/mL | 2 µg/mL | 
Cc1ccc(C)c([Se]CC(O)(Cn2cncn2)c2ccc(F)cc2F)c1 (stereo not given) | 1 µg/mL | 2 µg/mL | 1 µg/mL | 2 µg/mL | 0.25 µg/mL | 0.5 µg/mL | 0.5 µg/mL | 1 µg/mL | 
OC(C[Se]Cc1ccc(C(F)(F)F)cc1)(Cn1cncn1)c1ccc(F)cc1F (stereo not given) | 0.03 µg/mL | 4 µg/mL | 0.03 µg/mL | 4 µg/mL | 0.5 µg/mL | 0.5 µg/mL | 0.25 µg/mL | 2 µg/mL | 
OC(C[Se]Cc1cccc(F)c1)(Cn1cncn1)c1ccc(F)cc1F (stereo not given) | 0.03 µg/mL | 2 µg/mL | 0.06 µg/mL | 2 µg/mL | 2 µg/mL | 0.25 µg/mL | 0.25 µg/mL | 1 µg/mL | 
Cc1ccc(C[Se]CC(O)(Cn2cncn2)c2ccc(F)cc2F)cc1 (stereo not given) | 0.06 µg/mL | 2 µg/mL | 0.125 µg/mL | 2 µg/mL | 1 µg/mL | 1 µg/mL | 0.25 µg/mL | 2 µg/mL | 
COc1cccc(C[Se]CC(O)(Cn2cncn2)c2ccc(F)cc2F)c1 (stereo not given) | 0.125 µg/mL | 4 µg/mL | 0.25 µg/mL | 4 µg/mL | 2 µg/mL | 4 µg/mL | 0.25 µg/mL | 8 µg/mL | 
OC(C[Se]Cc1ccc(F)cc1)(Cn1cncn1)c1ccc(F)cc1F (stereo not given) | 0.03 µg/mL | 2 µg/mL | 0.06 µg/mL | 1 µg/mL | 2 µg/mL | 0.5 µg/mL | 0.25 µg/mL | 1 µg/mL | 
COc1cccc([Se]CC(O)(Cn2cncn2)c2ccc(F)cc2F)c1 (stereo not given) | 0.02 µg/mL | 8 µg/mL | 0.5 µg/mL | 4 µg/mL | 1 µg/mL | 2 µg/mL | 0.125 µg/mL | 2 µg/mL | 
COc1cccc2c1C(=O)c1c(O)c3c(c(O)c1C2=O)C[C@@](O)(C(=O)CO)C[C@@H]3O[C@H]1C[C@H](N)[C@H](O)[C@H](C)O1 [DOXORUBICIN] |  |  |  |  |  |  |  |  | pIC50 (HL-60): > 6.90
OC(Cn1cncn1)(Cn1cncn1)c1ccc(F)cc1F [FLUCONAZOLE] |  |  |  |  |  | 4 µg/mL |  |  | Activity [3]: 3.9%; Activity [4]: 1.5%; Activity [5]: 15.4%; Activity [6]: 13.5%; Activity [7]: 68.7%; Activity [8]: 67.9%; Activity [9]: 69.9%; Activity [10]: 69.6%; pIC50 (PC-3): 4.78; pIC50 (MDA-MB-231): 4.72; Activity [11]: 13.9%; Activity [12]: 14.9%; Activity [13]: 2.5%; Activity [14]: 13.1%; Activity [15]: 14.3%; Activity [16]: 14.1%; Activity [17]: 15.7%; Activity [18]: 1.1%; pIC50 (HL-60): 4.94
Clc1ccc(COC(Cn2ccnc2)c2ccc(Cl)cc2Cl)c(Cl)c1 (stereo not given) [MICONAZOLE] |  |  |  |  |  | 1 µg/mL |  |  | 
